{"source": "paper PMC12412968", "about": "“Indolicidin derivatives as potent dual-action antifungal and antibacterial agents for the treatment of skin infections: A comprehensive study from in vitro to in vivo evaluation” (PLOS One, 2025)", "key": {"[1]": {"details": "64 µM in PBS pH 7.4, 25, 45, 65, 85°C and 37°C, shaking 600 rpm, HPLC-DAD 280 nm, tryptophan internal standard, duplicate", "procedure": "Peptides were dissolved in phosphate-buffered saline (PBS, pH 7.0) and 10% SDS solution. The peptide concentration was determined by direct weighing and mixing. The secondary structure was analyzed using a circular dichroism (CD) spectrometer. Peptides (64 µM) were dissolved in PBS (pH 7.4) with tryptophan as an internal standard. The solution was incubated at 25°C, 45°C, 65°C, and 85°C with shaking at 600 rpm. Peptide quantification was performed using HPLC-DAD at 280 nm with an injection volume of 20 µL. Each experiment was conducted in duplicate, and data were processed using Excel based on peak areas of tryptophan and peptide. Peptides (40 µM) were dissolved in PBS (pH 8.0) and incubated with 0.0005% trypsin at 37°C under shaking (600 rpm). Samples were collected at 0, 15, and 30 minutes and analyzed by HPLC-DAD at 280 nm with an injection volume of 40 µL [20, 21]."}, "Staphylococcus aureus": {"system": "Staphylococcus aureus", "format": "cell-based", "details": "24 h", "procedure": "(§1) Bacteria (S. aureus, P. aeruginosa, S. epidermidis, E. coli, K. pneumoniae, Enterococcus) and Candida albicans from ATCC were cultured in appropriate media, adjusted to 10^6 CFU/mL before testing. The bacteria and fungal, taken from a deep freezer, were revived by culturing them in a nutrient-rich medium, to grow and form distinct colonies. These colonies were then diluted with physiological saline to reach a turbidity equivalent to 0.5 McFarland, corresponding to a bacterial and fungal concentration of 10⁸ CFU/mL. This suspension was further diluted with 0.9% saline to achieve a concentration of 10⁶ CFU/mL. Subsequently, the bacterial and fungal suspension were diluted 100-fold in Brain-Heart Infusion (BHI) broth to achieve a final concentration of 10⁴ CFU/mL. This bacterial and fungal suspension were used to determine the MIC values in the experiments. Peptides (IND and IND-4,11K) were diluted by 2-fold serial dilution in the range of […] and tested in 96-well plates containing Muller-Hinton (MH) medium. After adding bacteria (10^4 CFU/mL), the samples were incubated at 37°C for 24 h. MIC was determined as the lowest peptide concentration at which no bacterial growth was observed by measuring the optical density OD620 nm. […] The positive controls were Streptomycin for Gram-negative bacteria and Penicillin for Gram-positive bacteria. The negative control was 1X PBS solution. The positive control for antifungal activity was Nystatin.All experiments were performed in triplicate."}, "Candida albicans": {"system": "Candida albicans", "format": "cell-based", "details": "24 h", "procedure": "as §1"}, "[2]": {"system": "Staphylococcus epidermidis", "format": "cell-based", "details": "24 h", "procedure": "as §1"}, "Pseudomonas aeruginosa": {"system": "Pseudomonas aeruginosa", "format": "cell-based", "details": "24 h", "procedure": "as §1"}, "Klebsiella pneumoniae": {"system": "Klebsiella pneumoniae", "format": "cell-based", "details": "24 h", "procedure": "as §1"}, "Enterococcus faecium": {"system": "Enterococcus faecium", "format": "cell-based", "details": "24 h", "procedure": "as §1"}, "trypsin": {"system": "trypsin", "assay": "Enzymatic stability with trypsin", "format": "in vitro ADME", "details": "40 µM in PBS pH 8.0, 0.0005% trypsin, 37°C, 600 rpm, 15 and 30 minutes, HPLC-DAD 280 nm, duplicate"}, "red blood cell": {"system": "red blood cell", "assay": "Hemolysis assay", "format": "cell-based", "from_the_text": "The hemolysis assay results indicated a concentration-dependent effect of the peptides on red blood cell membrane integrity."}, "[3]": {"system": "S. aureus, S. epidermidis, E. coli, K. pneumoniae, E. faecium, and P. aeruginosa", "format": "cell-based", "details": "Staphylococcus aureus, Staphylococcus epidermidis and Enterococcus faecium", "procedure": "as §1"}, "[4]": {"details": "broth dilution, 96-well, MH medium, 10^4 CFU/mL, 37°C, OD620, triplicate"}, "[5]": {"details": "plated from MIC well and higher onto MH agar, triplicate"}}, "note": "Like-named read-outs stand apart in the source and are kept apart here. Ends that are not written are not given here.", "data": [{"compound": "ILKWKWPWWKWRR-NH2 [IND-4,11K]", "values": [{"measurement": "Thermal stability (retention time and peak area)", "setting": "[1]", "value": "remained largely unchanged"}, {"measurement": "MBC", "setting": "Staphylococcus aureus", "value": 48, "unit": "µM"}, {"measurement": "MIC", "setting": "Staphylococcus aureus", "value": 48, "unit": "µM"}, {"measurement": "MBC", "setting": "Candida albicans", "value": 32, "unit": "µM"}, {"measurement": "MIC", "setting": "Candida albicans", "value": 32, "unit": "µM"}, {"measurement": "MBC", "setting": "[2]", "value": 8, "unit": "µM"}, {"measurement": "MIC", "setting": "[2]", "value": 8, "unit": "µM"}, {"measurement": "MBC", "setting": "Pseudomonas aeruginosa", "value": 128, "unit": "µM"}, {"measurement": "MIC", "setting": "Pseudomonas aeruginosa", "value": 128, "unit": "µM"}, {"measurement": "MBC", "setting": "Klebsiella pneumoniae", "value": 128, "unit": "µM"}, {"measurement": "MIC", "setting": "Klebsiella pneumoniae", "value": 128, "unit": "µM"}, {"measurement": "MBC", "setting": "Enterococcus faecium", "value": 32, "unit": "µM"}, {"measurement": "MIC", "setting": "Enterococcus faecium", "value": 32, "unit": "µM"}, {"measurement": "Enzymatic stability with trypsin", "setting": "trypsin", "value": "significant degradation"}]}, {"compound": "CC[C@H](C)[C@H](N)C(=O)N[C@@H](CC(C)C)C(=O)N1CCC[C@H]1C(=O)N[C@@H](Cc1c[nH]c2ccccc12)C(=O)N[C@@H](CCCCN)C(=O)N[C@@H](Cc1c[nH]c2ccccc12)C(=O)N1CCC[C@H]1C(=O)N[C@@H](Cc1c[nH]c2ccccc12)C(=O)N[C@@H](Cc1c[nH]c2ccccc12)C(=O)N1CCC[C@H]1C(=O)N[C@@H](Cc1c[nH]c2ccccc12)C(=O)N[C@@H](CCCNC(=N)N)C(=O)N[C@@H](CCCNC(=N)N)C(N)=O", "note": "[IND, Indolicidin]", "values": [{"measurement": "Hemolysis activity", "setting": "red blood cell; peptide 2 uM", "value": "3.04 ± 0.29", "unit": "%"}, {"measurement": "Hemolysis activity", "setting": "red blood cell; peptide 4 uM", "value": "2.51 ± 0.24", "unit": "%"}, {"measurement": "Hemolysis activity", "setting": "red blood cell; peptide 8 uM", "value": "3.05 ± 0.34", "unit": "%"}, {"measurement": "Hemolysis activity", "setting": "red blood cell; peptide 16 uM", "value": "4.89 ± 0.03", "unit": "%"}, {"measurement": "Hemolysis activity", "setting": "red blood cell; peptide 32 uM", "value": "10.33 ± 1.06", "unit": "%"}, {"measurement": "Hemolysis activity", "setting": "red blood cell; peptide 64 uM", "value": "18.09 ± 1.57", "unit": "%"}, {"measurement": "Hemolysis activity", "setting": "red blood cell; peptide 128 uM", "value": "30.91 ± 2.27", "unit": "%"}, {"measurement": "Thermal stability (retention time and peak area)", "setting": "[1]", "value": "remained largely unchanged"}, {"measurement": "MIC", "setting": "Staphylococcus aureus; [4]", "value": 64, "unit": "µM"}, {"measurement": "MBC", "setting": "Staphylococcus aureus; [5]", "value": 64, "unit": "µM"}, {"measurement": "MIC (range over organisms)", "setting": "[3]", "value": "8 to 64", "unit": "µM"}, {"measurement": "MIC", "setting": "Candida albicans; [4]", "value": 64, "unit": "µM"}, {"measurement": "MBC", "setting": "Candida albicans; [5]", "value": ">128", "unit": "µM"}, {"measurement": "MIC", "setting": "[2]; [4]", "value": 8, "unit": "µM"}, {"measurement": "MBC", "setting": "[2]; [5]", "value": 8, "unit": "µM"}, {"measurement": "MIC", "setting": "Pseudomonas aeruginosa; [4]", "value": ">128", "unit": "µM"}, {"measurement": "MBC", "setting": "Pseudomonas aeruginosa; [5]", "value": ">128", "unit": "µM"}, {"measurement": "MIC", "setting": "Klebsiella pneumoniae; [4]", "value": ">128", "unit": "µM"}, {"measurement": "MBC", "setting": "Klebsiella pneumoniae; [5]", "value": ">128", "unit": "µM"}, {"measurement": "MIC", "setting": "Enterococcus faecium; [4]", "value": 32, "unit": "µM"}, {"measurement": "MBC", "setting": "Enterococcus faecium; [5]", "value": 32, "unit": "µM"}, {"measurement": "Enzymatic stability with trypsin", "setting": "trypsin", "value": "significant degradation"}]}]}
